According to US20180319753A1, “MICROBIOCIDAL OXADIAZOLE DERIVATIVES” (SYNGENTA PARTICIPATIONS AG, priority 2015, published 2018):

Legend:
[1] = system: Glomerella lagenarium (Colletotrichum lagenarium); assay: Glomerella lagenarium (Colletotrichum lagenarium) liquid culture / cucumber / preventative (anthracnose); format: cell-based; conditions: Colletotrichum orbiculare; 20 ppm in the applied formulation; liquid culture in PDB, 24° C.; 3 to 4 days after application; read-out: disease control compared to untreated control (inhibition of growth measured photometrically)
In short: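 Test compound in DMSO is placed in a microtiter plate, then potato dextrose broth containing conidia from cryogenic storage is added. Incubation runs at 24° C., and growth inhibition is read photometrically after 3 to 4 days.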

[2] = system: Puccinia recondita f. Sp. Tritici; assay: Puccinia recondita f. sp. tritici / wheat / leaf disc preventative (brown rust); format: in vivo; conditions: foliar, 200 ppm in the applied formulation, wheat leaf segments cv. Kanzler, inoculated 1 day after application, assessed 7 to 9 days after application, read-out: disease control compared to untreated control leaf disks
Procedure: Leaf disks or leaf segments of various plant species are cut from plants grown in a greenhouse. The cut leaf disks or segments are placed in multiwell plates (24-well format) onto water agar. The leaf disks are sprayed with a test solution before (preventative) or after (curative) inoculation. Compounds to be tested are prepared as DMSO solutions (max. 10 mg/ml) which are diluted to the appropriate concentration with 0.025% Tween20 just before spraying. The inoculated leaf disks or segments are incubated under defined conditions (temperature, relative humidity, light, etc.) according to the respective test system. A single evaluation of disease level is carried out 3 to 14 days after inoculation, depending on the pathosystem. Percent disease control relative to the untreated check leaf disks or segments is then calculated. Wheat leaf segments cv. Kanzler were placed on agar in multiwell plates (24-well format) and sprayed with the formulated test compound diluted in water. The leaf disks were inoculated with a spore suspension of the fungus 1 day after application. The inoculated leaf segments were incubated at 19° C. and 75% relative humidity (rh) under a light regime of 12 hours light/12 hours darkness in a climate cabinet and the activity of a compound was assessed as percent disease control compared to untreated when an appropriate level of disease damage appears in untreated check leaf segments (7 to 9 days after application). The following compounds at 200 ppm in the applied formulation give at least 80% disease control in this test when compared to untreated control leaf disks under the same conditions, which show extensive disease development.

Phakopsora pachyrhizi = Phakopsora pachyrhizi / soybean / leaf disc preventative (Asian soybean rust); format: in vivo; conditions: foliar, 200 ppm in the applied formulation, soybean leaf disks, inoculated one day after application, assessed 12 to 14 days after application, read-out: disease control compared to untreated control leaf disks
In short: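 Read-out is percent disease control relative to untreated check discs, assessed once untreated discs show adequate disease, 12 to 14 days after application. Compounds, tested at 200 ppm in the applied formulation, are sprayed onto soybean leaf discs one day before inoculation with a spore suspension.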

[3] = system: Puccinia recondita f. Sp. Tritici; assay: Puccinia recondita f. sp. tritici / wheat / leaf disc curative (brown rust); format: in vivo; conditions: foliar, 200 ppm in the applied formulation, wheat leaf segments cv. Kanzler, applied 1 day after inoculation, assessed 6 to 8 days after application, read-out: disease control compared to untreated control leaf disks
Procedure: Leaf disks or leaf segments of various plant species are cut from plants grown in a greenhouse. The cut leaf disks or segments are placed in multiwell plates (24-well format) onto water agar. The leaf disks are sprayed with a test solution before (preventative) or after (curative) inoculation. Compounds to be tested are prepared as DMSO solutions (max. 10 mg/ml) which are diluted to the appropriate concentration with 0.025% Tween20 just before spraying. The inoculated leaf disks or segments are incubated under defined conditions (temperature, relative humidity, light, etc.) according to the respective test system. A single evaluation of disease level is carried out 3 to 14 days after inoculation, depending on the pathosystem. Percent disease control relative to the untreated check leaf disks or segments is then calculated.
Wheat leaf segments cv. Kanzler are placed on agar in multiwell plates (24-well format). The leaf segments are then inoculated with a spore suspension of the fungus. Plates were stored in darkness at 19° C. and 75% relative humidity. The formulated test compound diluted in water was applied 1 day after inoculation. The leaf segments were incubated at 19° C. and 75% relative humidity under a light regime of 12 hours light/12 hours darkness in a climate cabinet and the activity of a compound was assessed as percent disease control compared to untreated when an appropriate level of disease damage appears in untreated check leaf segments (6 to 8 days after application).
The following compounds at 200 ppm in the applied formulation give at least 80% disease control in this test when compared to untreated control leaf disks under the same conditions, which show extensive disease development.

| melting point | SMILES | inhibition at 20 ppm [1] | pest or weed control at 200 ppm [2] | pest or weed control at 200 ppm (Phakopsora pachyrhizi) | pest or weed control at 200 ppm [3] |
| --- | --- | --- | --- | --- | --- |
| 55 to 60 °C | COc1ccc(Sc2ccc(-c3noc(C(F)(F)F)n3)cc2)cc1 [Compound 1.2, 3-[4-(4-methoxyphenyl)sulfanylphenyl]-5-(trifluoromethyl)-1,2,4-oxadiazole] | ≥ 80% | ≥ 80% | ≥ 80% | ≥ 80% |
| 52 to 58 °C | Fc1c(CSc2ccccc2)ccc(-c2noc(C(F)(F)F)n2)c1F [Compound 1.26, 3-[2,3-difluoro-4-(phenylsulfanylmethyl)phenyl]-5-(trifluoromethyl)-1,2,4-oxadiazole] | ≥ 80% | ≥ 80% | ≥ 80% | ≥ 80% |
| 97 to 106 °C | [O-][S+](c1ccccc1)c1ccc(-c2noc(C(F)(F)F)n2)cc1 (centres unmarked) [Compound 2.1, 3-[4-(benzenesulfinyl)phenyl]-5-(trifluoromethyl)-1,2,4-oxadiazole] | ≥ 80% | ≥ 80% | ≥ 80% | ≥ 80% |
| 93 to 98 °C | COc1ccc([S+]([O-])c2ccc(-c3noc(C(F)(F)F)n3)cc2)cc1 (centres unmarked) [Compound 2.2, 3-[4-(4-methoxyphenyl)sulfinylphenyl]-5-(trifluoromethyl)-1,2,4-oxadiazole] | ≥ 80% | ≥ 80% | ≥ 80% | ≥ 80% |
| 108 to 114 °C | [O-][S+](c1ccc(-c2noc(C(F)(F)F)n2)cc1)C1CCCCC1 (centres unmarked) [Compound 2.3, 3-(4-cyclohexylsulfinylphenyl)-5-(trifluoromethyl)-1,2,4-oxadiazole] | ≥ 80% | ≥ 80% | ≥ 80% | ≥ 80% |
| 118 to 123 °C | [O-][S+](c1ccc(-c2noc(C(F)(F)F)n2)cc1)c1ccc(F)cc1F (centres unmarked) [Compound 2.5, 3-[4-(2,4-difluorophenyl)sulfinyl-phenyl]-5-(trifluoromethyl)-1,2,4-oxadiazole] | ≥ 80% | ≥ 80% | ≥ 80% | ≥ 80% |
| 93 to 100 °C | [O-][S+](CC(F)(F)F)c1ccc(-c2noc(C(F)(F)F)n2)cc1 (centres unmarked) [Compound 2.6, 3-[4-(2,2,2-trifluoroethylsulfinyl)phenyl]-5-(trifluoromethyl)-1,2,4-oxadiazole] | ≥ 80% | ≥ 80% | ≥ 80% | ≥ 80% |
| 81 to 85 °C | [O-][S+](CCc1ccccc1)c1ccc(-c2noc(C(F)(F)F)n2)cc1 (centres unmarked) [Compound 2.8, 3-[4-(2-phenylethylsulfinyl)phenyl]-5-(trifluoromethyl)-1,2,4-oxadiazole] | ≥ 80% | ≥ 80% | ≥ 80% | ≥ 80% |
| 91 to 97 °C | [O-][S+](c1ccccc1)c1ccc(-c2noc(C(F)(F)F)n2)cn1 (centres unmarked) [Compound 2.10, 3-[6-(benzenesulfinyl)-3-pyridyl]-5-(trifluoromethyl)-1,2,4-oxadiazole] | ≥ 80% | ≥ 80% | ≥ 80% | ≥ 80% |
| 71 to 83 °C | Cc1cc(C)cc([S+]([O-])c2ccc(-c3noc(C(F)(F)F)n3)cc2)c1 (centres unmarked) [Compound 2.12, 3-[4-(3,5-dimethylphenyl)sulfinyl-phenyl]-5-(trifluoromethyl)-1,2,4-oxadiazole] | ≥ 80% | ≥ 80% | ≥ 80% | ≥ 80% |
